The values that follow come from US11358953B2, “Functionalized peptides as antiviral agents” (ENANTA PHARMACEUTICALS, INC., priority 2020, dated 2022).

Structures are written as SMILES. A value given as a limit tells only on which side of the number the result lay.

As a reminder, the IC50 is the concentration that inhibits the measured activity by half.

The target in the assay is SARS-CoV-2 3CL-protease (Severe acute respiratory syndrome coronavirus 2 (2019-nCoV) (SARS-CoV-2), UniProt P0DTD1). As to the kind of experiment: SARS-CoV-2 3C-like (3CL) protease fluorescence assay (FRET). The assay is classed as biochemical. As to conditions: recombinant SARS-CoV-2 3CL-protease 10 nM, 30 min preincubation at RT, substrate 40 μM, duplicate.
On to `CC1(C)C2CN(C(=O)c3cc4c(OC(F)F)cccc4[nH]3)[C@H](C(=O)N[C@H](C#N)C[C@@H]3CCNC3=O)C21` (stereo in doubt) [Ex11, (1S,2S,5R)—N—((S)-1-cyano-2-((S)-2-oxopyrrolidin-3-yl)ethyl)-3-(4-(difluoromethoxy)-1H-indole-2-carbonyl)-6,6-dimethyl-3-azabicyclo[3.1.0]hexane-2-carboxamide], for which the IC50 was 100 to 1000 nM. As to `COc1cccc2[nH]c(C(=O)N3C[C@@H]4CCC[C@@H]4[C@H]3C(=O)N[C@@H](C[C@@H]3CCNC3=O)C(=O)CCl)cc12` [Ex1, (1S,3aR,6aS)—N—((S)-4-chloro-3-oxo-1-((S)-2-oxopyrrolidin-3-yl)butan-2-yl)-2-(4-methoxy-1H-indole-2-carbonyl)octahydrocyclopenta[c]pyrrole-1-carboxamide], the IC50 was in the range of 100 to 1000 nM.

As for `COc1cccc2[nH]c(C(=O)N3C[C@@H]4CCC[C@@H]4[C@H]3C(=O)N[C@@H](C[C@@H]3CCNC3=O)C(=O)COC(=O)c3c(Cl)cccc3Cl)cc12` [Ex2, (S)-3-((1S,3aR,6aS)-2-(4-methoxy-1H-indole-2-carbonyl)octahydrocyclopenta[c]pyrrole-1-carboxamido)-2-oxo-4-((S)-2-oxopyrrolidin-3-yl)butyl 2,6-dichlorobenzoate], the 50% inhibitory concentration (IC50) is under 100 nM.

In the case of `N#C[C@H](C[C@@H]1CCNC1=O)NC(=O)[C@@H]1[C@H]2CCC[C@H]2CN1C(=O)c1cc2c(OC(F)F)cccc2[nH]1` [Ex3, (1S,3aR,6aS)—N—((S)-1-cyano-2-((S)-2-oxopyrrolidin-3-yl)ethyl)-2-(4-(difluoromethoxy)-1H-indole-2-carbonyl)octahydrocyclopenta[c]pyrrole-1-carboxamide], the IC50 fell in the range of 100 to 1000 nM. The result for `O=C[C@H](C[C@@H]1CCNC1=O)NC(=O)[C@@H]1[C@H]2CCC[C@H]2CN1C(=O)c1cc2c(OC(F)F)cccc2[nH]1` [Ex5, (1S,3aR,6aS)-2-(4-(difluoromethoxy)-1H-indole-2-carbonyl)-N—((S)-1-oxo-3-((S)-2-oxopyrrolidin-3-yl)propan-2-yl)octahydrocyclopenta[c]pyrrole-1-carboxamide] reads under 100 nM; that for `COc1cccc2[nH]c(C(=O)N3C[C@@H]4CCC[C@@H]4[C@H]3C(=O)N[C@H](C=O)C[C@@H]3CCNC3=O)cc12` [Ex6, (1S,3aR,6aS)-2-(4-methoxy-1H-indole-2-carbonyl)-N—((S)-1-oxo-3-((S)-2-oxopyrrolidin-3-yl)propan-2-yl)octahydrocyclopenta[c]pyrrole-1-carboxamide], under 100 nM; that for `COc1cccc2[nH]c(C(=O)N3C[C@@H]4CCC[C@@H]4[C@H]3C(=O)N[C@H](C#N)C[C@@H]3CCCNC3=O)cc12` [Ex7, (1S,3aR,6aS)—N—((S)-1-cyano-2-((S)-2-oxopiperidin-3-yl)ethyl)-2-(4-methoxy-1H-indole-2-carbonyl)octahydrocyclopenta[c]pyrrole-1-carboxamide], under 100 nM. Under `O=C(NC1CCCCC1)C(=O)[C@H](C[C@@H]1CCNC1=O)NC(=O)[C@@H]1[C@H]2CCC[C@H]2CN1C(=O)c1cc2c(OC(F)F)cccc2[nH]1` [Ex8, (1S,3aR,6aS)—N—((S)-4-(cyclohexylamino)-3,4-dioxo-1-((S)-2-oxopyrrolidin-3-yl)butan-2-yl)-2-(4-(difluoromethoxy)-1H-indole-2-carbonyl)octahydrocyclopenta[c]pyrrole-1-carboxamide] stands under 100 nM; under `COc1cccc2[nH]c(C(=O)N3C[C@@H]4CCC[C@@H]4[C@H]3C(=O)N[C@@H](C[C@@H]3CCNC3=O)C(=O)C(=O)NC3CCCCC3)cc12` [Ex9, (1S,3aR,6aS)—N—((S)-4-(cyclohexylamino)-3,4-dioxo-1-((S)-2-oxopyrrolidin-3-yl)butan-2-yl)-2-(4-methoxy-1H-indole-2-carbonyl)octahydrocyclopenta[c]pyrrole-1-carboxamide], under 100 nM; under `COc1cccc2[nH]c(C(=O)N3C[C@@H]4CCC[C@@H]4[C@H]3C(=O)N[C@@H](C[C@@H]3CCNC3=O)C(=O)CO)cc12` [Ex10, (1S,3aR,6aS)—N—((S)-4-hydroxy-3-oxo-1-((S)-2-oxopyrrolidin-3-yl)butan-2-yl)-2-(4-methoxy-1H-indole-2-carbonyl)octahydrocyclopenta[c]pyrrole-1-carboxamide], 100 to 1000 nM. Under `N#C[C@H](C[C@@H]1CCNC1=O)NC(=O)[C@@H]1CCCN1C(=O)c1cc2c(OC(F)F)cccc2[nH]1` [Ex12, (S)—N—((S)-1-cyano-2-((S)-2-oxopyrrolidin-3-yl)ethyl)-1-(4-(difluoromethoxy)-1H-indole-2-carbonyl)pyrrolidine-2-carboxamide] stands over 1000 nM; under `N#C[C@H](C[C@@H]1CCNC1=O)NC(=O)[C@@H]1[C@H]2CCC[C@H]2CN1C(=O)c1cc2c(F)cc(F)cc2[nH]1` [Ex13, (1S,3aR,6aS)—N—((S)-1-cyano-2-((S)-2-oxopyrrolidin-3-yl)ethyl)-2-(4,6-difluoro-1H-indole-2-carbonyl)octahydrocyclopenta[c]pyrrole-1-carboxamide], 100 to 1000 nM; under `N#C[C@H](C[C@@H]1CCNC1=O)NC(=O)[C@@H]1[C@H]2CCC[C@H]2CN1C(=O)c1cc2c(Cl)cccc2[nH]1` [Ex14, (1S,3aR,6aS)-2-(4-chloro-1H-indole-2-carbonyl)-N—((S)-1-cyano-2-((S)-2-oxopyrrolidin-3-yl)ethyl)octahydrocyclopenta[c]pyrrole-1-carboxamide], 100 to 1000 nM.

With `O=C(NCc1ccccc1)C(=O)[C@H](C[C@@H]1CCNC1=O)NC(=O)[C@@H]1[C@H]2CCC[C@H]2CN1C(=O)c1cc2c(OC(F)F)cccc2[nH]1` [Ex15, (1S,3aR,6aS)—N—((S)-4-(benzylamino)-3,4-dioxo-1-((S)-2-oxopyrrolidin-3-yl)butan-2-yl)-2-(4-(difluoromethoxy)-1H-indole-2-carbonyl)octahydrocyclopenta[c]pyrrole-1-carboxamide], the IC50 was under 100 nM. With `CC1(C)[C@@H]2[C@@H](C(=O)N[C@H](C#N)C[C@@H]3CCNC3=O)N(C(=O)c3cc4cc(F)cc(F)c4[nH]3)C[C@@H]21` [Ex16, (1R,2S,5S)—N—((S)-1-cyano-2-((S)-2-oxopyrrolidin-3-yl)ethyl)-3-(5,7-difluoro-1H-indole-2-carbonyl)-6,6-dimethyl-3-azabicyclo[3.1.0]hexane-2-carboxamide], the IC50 lay in the range of 100 to 1000 nM. `CC1(C)[C@@H]2[C@@H](C(=O)N[C@H](C#N)C[C@@H]3CCNC3=O)N(C(=O)c3cc4cc(F)c(F)cc4[nH]3)C[C@@H]21` [Ex17, (1R,2S,5S)—N—((S)-1-cyano-2-((S)-2-oxopyrrolidin-3-yl)ethyl)-3-(5,6-difluoro-1H-indole-2-carbonyl)-6,6-dimethyl-3-azabicyclo[3.1.0]hexane-2-carboxamide]: the IC50 lay in the range of 100 to 1000 nM. Under `CC1(C)[C@@H]2[C@@H](C(=O)N[C@H](C#N)C[C@@H]3CCNC3=O)N(C(=O)c3cc4c(F)cc(F)cc4[nH]3)C[C@@H]21` [Ex18, (1R,2S,5S)—N—((S)-1-cyano-2-((S)-2-oxopyrrolidin-3-yl)ethyl)-3-(4,6-difluoro-1H-indole-2-carbonyl)-6,6-dimethyl-3-azabicyclo[3.1.0]hexane-2-carboxamide] stands 100 to 1000 nM; under `N#C[C@H](C[C@@H]1CCNC1=O)NC(=O)[C@@H]1C[C@H](Oc2ccccc2)CN1C(=O)c1cc2c(OC(F)F)cccc2[nH]1` [Ex19, (2S,4S)—N—((S)-1-cyano-2-((S)-2-oxopyrrolidin-3-yl)ethyl)-1-(4-(difluoromethoxy)-1H-indole-2-carbonyl)-4-phenoxypyrrolidine-2-carboxamide], over 1000 nM.
